# Reference: paper PMC3408606 (Thrombosis and haemostasis, 2011)
# Read-outs that look alike come from different tables or passages of the source.
# Tests used:
# triplatin [1] = biological target: T1, triplatin (Triatoma infestans, UniProt Q18NS7)
# triplatin [2] = biological target: T1, triplatin; test: biochemical
# ApoD = test: Isothermal titration calorimetry of ligand binding to ApoD; conditions: ITC, ApoD expressed in HEK293 cells
# platelets = test: Platelet aggregation; assay type: cell-based, human; conditions: for Effect on ADP-induced platelet aggregation: indometacin 50 μM
# T1 sequence (Q18NS7 19-182 limits assumed): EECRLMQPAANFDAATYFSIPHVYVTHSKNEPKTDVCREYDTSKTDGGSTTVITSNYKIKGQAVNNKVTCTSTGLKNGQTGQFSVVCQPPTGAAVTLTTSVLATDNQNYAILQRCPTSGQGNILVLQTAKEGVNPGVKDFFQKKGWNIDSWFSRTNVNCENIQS
structure (smiles),measurement,setting,value
CCCCC/C=C\C/C=C\C[C@H](O)/C=C/C=C\CCCC(=O)O [9s-HETE],Kd,triplatin [1],> 1000 nM
CCCCC/C=C\C[C@H](O)/C=C/C=C\C/C=C\CCCC(=O)O [12(S)-HETE],Binding to triplatin,"triplatin [1]; ITC, Figure 3 or not shown",not observed
CCCCC[C@H](O)/C=C/C=C\C/C=C\C/C=C\CCCC(=O)O [15s-HETE],Kd,triplatin [2],> 1000 nM
O=C(O)CCC/C=C\C/C=C\C/C=C\C/C=C\CCCCCO [20-HETE],Binding to triplatin,"triplatin [1]; ITC, Figure 3 or not shown",not observed
"Nc1ncnc2c1ncn2[C@@H]1O[C@H](COP(=O)(O)OP(=O)(O)O)[C@@H](O)[C@H]1O [ADP, adenosine diphosphate]",Binding to triplatin,"triplatin [1]; ITC, Figure 3 or not shown",not observed
"CCCCC/C=C\C/C=C\C/C=C\C/C=C\CCCC(=O)O [Arachidonic acid, arachidonic acid]",Binding to ApoD,ApoD,failed to detect binding
same,Binding to triplatin,"triplatin [1]; ITC, Figure 3 or not shown",not observed
"NCCc1c[nH]cn1 [Histamine, histamine]",Binding to triplatin,"triplatin [1]; ITC, Figure 3 or not shown",not observed
CCCCC/C=C\C\C=C/C=C/C=C/[C@@H](SC[C@H](NC(=O)CC[C@H](N)C(=O)O)C(=O)NCC(=O)O)[C@@H](O)CCCC(=O)O [LTC4],Binding to triplatin,triplatin [1],not observed
CCCCC[C@H](O)/C=C/[C@H]1[C@H](O)CC(=O)[C@@H]1CCCCCCC(=O)O [PGE1],Binding to triplatin,triplatin [1],not observed
CCCCC[C@H](O)/C=C/[C@@H]1[C@@H](C/C=C\CCCC(=O)O)[C@@H](O)C[C@H]1O [PGF2α],Binding to ApoD,ApoD,failed to detect binding
same,ΔG,"triplatin [1]; calculated free energy, ITC 30°C, n.d. = no binding detected",-9.25 kcal/mol
same,Kd,triplatin [2],215 ± 10 nM
CCCCC[C@H](O)/C=C/[C@H]1C(=O)C=C[C@@H]1C/C=C\CCCC(=O)O [PGJ2],Kd,triplatin [1],111 ± 3.4 nM
same,TΔS,triplatin [1],-1.49 kcal/mol
same,ΔG,triplatin [1],-9.65 kcal/mol
same,ΔH,triplatin [1],-11.14 ± 0.38 kcal/mol
O=C(O)CCC/C=C\C[C@@H]1[C@H](CNNC(=O)Nc2ccccc2)[C@H]2CC[C@@H]1O2 [SQ29548],Inhibition of collagen-induced platelet aggregation,platelets,partial inhibition
CCCCC[C@H](O)/C=C/[C@H]1OC(O)C[C@H](O)[C@@H]1C/C=C\CCCC(=O)O (stereo partly shown) [TXB2],Kd,triplatin [1],355 ± 6.7 nM
same,TΔS,triplatin [1],-2.58 kcal/mol
same,ΔG,triplatin [1],-8.95 kcal/mol
same,ΔH,triplatin [1],-11.53 ± 0.92 kcal/mol
CCCCC[C@H](O)/C=C/[C@@H]1[C@@H](C/C=C\CCCC(=O)O)[C@H]2CO[C@@H]1C2 [U46619],Kd,triplatin [1],294 ± 51 nM
same,TΔS,triplatin [1],-2.46 kcal/mol
same,ΔG,triplatin [1],-9.06 kcal/mol
same,ΔH,triplatin [1],-11.52 ± 0.38 kcal/mol
CCCCC[C@H](O)/C=C/[C@H]1CC2CC(C2)[C@@H]1C/C=C\CCCC(=O)O [cTXA2],Binding to ApoD,ApoD,failed to detect binding
same,Kd,triplatin [1],369 ± 103 nM
same,TΔS,triplatin [1],-3.90 kcal/mol
same,ΔG,triplatin [1],-8.93 kcal/mol
same,ΔH,triplatin [1],-12.83 ± 0.73 kcal/mol
COc1ccc2c(c1)c(CC(=O)O)c(C)n2C(=O)c1ccc(Cl)cc1 [indometacin],Effect on ADP-induced platelet aggregation,platelets; ADP 1 μM (low dose),not affected
same,Effect on ADP-induced platelet aggregation,platelets; ADP 10 μM,attenuated
same,Inhibition of collagen-induced platelet aggregation,"platelets; collagen 6.6 μg/ml, inhibitor alone: indometacin 50 μM, SQ29548 0.2 μM, triplatin 1 μM",partial inhibition
